In the NIST ThermoML archive (doi:10.1016/j.jct.2014.03.001):

Assay: mn = molality of the nth substance listed, in mol/kg
Settings: 84.51 kPa, Liquid; for speed of sound: Frequency=3 MHz, Sing-around technique in a fixed-path interferometer; for mass density: Vibrating tube method

CCCCCCCCCCCCn1cc[n+](C)c1.[Br-] [1-dodecyl-3-methylimidazolium bromide] + O
Settings	mass density, 288.15 K [kg/m3]	mass density, 293.15 K [kg/m3]	mass density, 298.15 K [kg/m3]	speed of sound, 288.15 K [m/s]	speed of sound, 293.15 K [m/s]	speed of sound, 298.15 K [m/s]
m1 = 0.00233	999.188	998.288	997.123	1467.3	1483.3	1497.4
m1 = 0.00278	999.209	998.306	997.142	1467.4	1483.3	1497.4
m1 = 0.00301	999.216	998.314	997.148	1467.5	1483.4	1497.6
m1 = 0.00467	999.282	998.376	997.208	1467.7	1483.7	1497.8
m1 = 0.00501	999.296	998.39	997.221	1467.9	1483.9	1497.9
m1 = 0.00665	999.36	998.451	997.28	1468.4	1484.2	1498.2
m1 = 0.00889	999.451	998.538	997.362	1469	1484.8	1498.8
m1 = 0.00906	999.458	998.544	997.366	1469	1484.8	1498.8
m1 = 0.01229	999.569	998.652	997.472	1469.4	1485.1	1499.1
m1 = 0.01511	999.659	998.738	997.555	1469.4	1485.1	1499.1
m1 = 0.01804	999.736	998.815	997.629	1469.5	1485.2	1499.1
m1 = 0.02431	999.927	998.999	997.806	1469.6	1485.2	1499.1
m1 = 0.03042	1000.12	999.185	997.989	1469.7	1485.3	1499.1
m1 = 0.04595	1000.6	999.641	998.429	1470	1485.4	1499.1
m1 = 0.06124	1001.06	1000.09	998.861	1470.2	1485.5	1499
m1 = 0.07667	1001.51	1000.53	999.288	1470.5	1485.7	1499.1
m1 = 0.098	1002.15	1001.14	999.878	1471	1486	1499.2
m1 = 0.1095	1002.5	1001.48	1000.21	1471.1	1486.1	1499.2
